Assay results published in paper PMC12169680, “Design and Mechanistic Analysis of a Potent Bivalent Inhibitor of Transthyretin Amyloid Fibrillogenesis” (Journal of Medicinal Chemistry, 2025).

Key:
V122I TTR [1] = target: T1, V122I TTR (Homo sapiens, UniProt P02766, V142I); test: Electrophoretic analysis of V122I TTR proteolysis before and after mechano-enzymatic aggregation; type: biochemical; settings: SDS-PAGE, trypsin, 96 h aggregation
T1 construct: 1-127; His6 (N); TEV cleavage site (N); made in house; host or cells: E. coli BL21 (DE3)
Experimental: Figure S2. Effect of B26 on proteolysis of V122I TTR. Homogenous SDS-12% PAGE under reducing conditions of 9 µM V122I TTR before (a) and after 96 h aggregation in the presence of 0 (b), 4.5 µM (c), 9 (d), 18 (e) and 36 µM (f) of B26 respectively in PBS pH 7.4 at 37°C. Aggregation was carried out under fluid agitation and addition of trypsin at an enzyme: substrate ratio of 1:200. LMW marker […]

TTR = target: T2, TTR (Homo sapiens, UniProt P02766); test: NMR saturation transfer difference (STD) experiments to estimate k off; type: binding; settings: no STD signal observed by increasing the saturation time
T2 construct: Native TTR is a noncovalent homotetramer of β-sheet-rich 127-residue protomers; His6 (N); TEV cleavage site (N); made in house; host or cells: E. coli BL21 (DE3)
From the text: However, the prototype mds84 was unsuitable for drug development due to its large and highly hydrophobic structure. The bivalent compound B26 represents the evolution of such TTR ligands. Compared to the palindromic prototype, the molecule has reduced size and reduced lipophilicity as a consequence of the removal of one of the aryl rings from headgroup B; introduction of an oxygen in the six-atom linker; replacement of the benzoyl group in headgroup A with 4-carboxy pyridine. Despite these structural changes, the ligand retains the same pseudoirreversible binding of mds84. […] Therefore, the B26 ligand overcomes the pharmaceutical limitations of negative cooperativity and, at the same time, retains the biomolecular property of very strong inhibition of TTR fibrillogenesis by simultaneously occupying the two ligand binding sites. Each of them is able to accommodate two aryl rings, and the one that penetrates deeper into the cavity is anchored to the protein by two halogen substituents. We have designed a bivalent molecule in which one-half has the properties of a classical analogue of the thyroid hormone, and the second half, connected through a chemical linker, is represented by only one aryl ring with halogen substituents.

[2] = target: T3, recombinant wild-type TTR (Homo sapiens, UniProt P02766); test: Stopped flow kinetics of ligand binding by fluorescence emission; settings: for rate constant k of TTR intrinsic fluorescence quenching / very early change in TTR fluorescence during dead time: 1 μM TTR; for rate constant k of TTR intrinsic fluorescence quenching: 1 μM ligand, 37 °C, PBS pH 7.4, first second; for very early change in TTR fluorescence during dead time: dead time <5 ms, equimolar ligand
T3 construct: Native TTR is a noncovalent homotetramer of β-sheet-rich 127-residue protomers; His6 (N); TEV cleavage site (N); made in house; host or cells: E. coli BL21 (DE3)
Experimental: Interaction of ligands in the TTR thyroxine binding pockets induces quenching of intrinsic fluorescence emission.
Kinetics of binding within the first second of reaction was evaluated with an SFM 3000 stopped flow device coupled to a MOS500 spectrometer with a fluorescence detection system (Bio Logic, Claix, France) and a cell path length of 1.5 mm (dead-time <5 ms). Total fluorescence emission over 325 nm, using a cut off filter, was monitored after excitation at 280 nm at 37 °C and 1 μM recombinant wild-type TTR in the presence of 1 μM of ligand in PBS pH 7.4 at a final concentration of 0.9% DMSO. Kinetic data were acquired as the average of at least 3 experimental mixings and fitted using the following equation y(t)=q+Aexp(−kt) where y(t) is the observed fluorescence q the offset of the baseline. A and k are, respectively, amplitude and rate constant of the observed fluorescence change.

V122I TTR [3] = target: T1, V122I TTR; test: Inhibition of mechano-enzymatic fibrillogenesis (ThT); type: biochemical
Experimental: To test their potency as inhibitors of TTR fibril formation, the 15 ligands were evaluated for their ability to inhibit the mechano-enzymatic mechanism of fibrillogenesis of V122I TTR, which is one of the most common amyloidogenic variants, , causing a disease with severity intermediate between the wild-type and other rare, more aggressive types of amyloidosis. […] Biochemical activity of ligands together with their physicochemical properties (i.e., cLogD, TPSA) were taken into consideration and B26 was finally selected as the most promising lead for further studies (Figure A). […] Prototype mds84 was also included for comparison. […] Although higher molar ratios of the monovalent ligands did inhibit fibrillogenesis, this cannot be replicated in vivo because the negative cooperativity of TTR cannot be overcome at feasible drug dosage. ,
Recombinant V122I TTR at 0.5 mg/mL (9 μM) in PBS, pH 7.4 was preincubated (37 °C for 30 min) with an equimolar concentration of ligand (or DMSO alone) before adding trypsin (5 ng/μL). Protein fibrillogenesis was carried out in glass vials stirred at 1400 rpm (IKA magnetic stirrer), 37 °C and spectrophotometric turbidity at 400 nm was used to monitor fibril formation over time until it reached a plateau at 96 h.
Analysis of amyloid material harvested from each sample at the end of the fibrillogenesis was carried out using Thioflavin T (ThT) emission fluorescence and Congo red staining. For these analyses, samples were centrifuged 20 min at 11,600g and pellets were thoroughly rinsed with PBS to remove nonbound ligand, resuspended with 100 μL PBS, pH 7.4, containing 10 μM Thioflavin T (ThT) in Costar 96-well black-wall plates. Bottom fluorescence values (excitation 440 nm, emission 480 nm) were recorded using a BMG LABTECH FLUostar Omega plate reader. Each value was normalized to the ThT signal of the TTR sample without ligand.

[4] = target: T4, wild-type TTR in normal human plasma (Homo sapiens, UniProt P02766); test: Displacement of 125I-T4 from TTR in normal human plasma; type: binding
T4 construct: TTR in whole plasma, from individuals homozygous for wild-type TTR; from tissue; host or cells: whole human plasma from individuals homozygous for wild-type TTR

Rat pharmacokinetics = type: in vivo; settings: data not shown
[5] = residual V122I TTR fibrillar aggregation with equimolar ligand, ThT emission normalized to protein without ligand, mean ± SD
[6] = supplementary CSV, residual V122I TTR aggregation, equimolar ligand

| SMILES | effect on proteolysis of V122I TTR (V122I TTR [1]) | k off (TTR) | rate constant k of TTR intrinsic fluorescence quenching [2] [s^–1] | very early change in TTR fluorescence during dead time [2] | quenching reaction / penetrance faster than mds84 ([2]; ratio of rate constants) [fold] | quenching reaction slower than tafamidis ([2]; ratio of rate constants) | reduction of TTR intrinsic fluorescence ([2]; within the first second, equimolar protein and ligand) [%] | antifibrillogenic activity, in words (V122I TTR [3]; V122I TTR, equimolar ligand) | Agg (%) (V122I TTR [3]; [5]) | Agg (%) (V122I TTR [3]; [6]) | binding to TTR in plasma, in words ([4]; normal human plasma) | rat pharmacokinetics compared with mds84 (Rat pharmacokinetics) | IC50 ([4]; capacity to displace 125I-T4 from TTR in human plasma) [µM] | IC50 ([4]; ligand concentration reducing binding of 125I-thyroxine by wild-type TTR by 50% in normal human plasma, mean ± SD) [µM] |
| --- | --- | --- | --- | --- | --- | --- | --- | --- | --- | --- | --- | --- | --- | --- |
| O=C(O)CCc1cc(Cl)c(OCCCOCCOc2c(Cl)cc(Nc3cnccc3C(=O)O)cc2Cl)c(Cl)c1 [B26, 3-[4-[2-[3-[4-(2-Carboxyethyl)-2,6-dichloro-phenoxy]-propoxy]-ethoxy]-3,5-dichloro-anilino]-Pyridine-4-Carboxylic Acid] | inhibited proteolysis | very slow | 22 ± 0.55 | approximately 8% | 5 | at least 2 fold | ~30 | excellent antifibrillogenic activity | 4.2 ± 1.9 | 4.2±1.9 | preservation of the properties | – | – | – |
| O=C(O)CCc1cc(Cl)c(OCCCCCCCOc2c(Cl)cc(Nc3ccccc3C(=O)O)cc2Cl)c(Cl)c1 [compound 1] | – | – | – | – | – | – | – | – | – | – | – | much improved | 2 ± 0.2 | – |
| O=C(O)c1ccccc1Nc1cc(Cl)c(OCCCCCCCOc2c(Cl)cc(Nc3ccccc3C(=O)O)cc2Cl)c(Cl)c1 [mds84, reference compound] | – | – | 4.4 ± 0.44 | 3% | – | – | – | – | 2.4 ± 0.30 | 2.4±0.30 | – | – | – | 19 ± 5.8 |
